These results are taken from US12162864B2, “Condensed-cyclic compound” (Takeda Pharmaceutical Company Limited, priority 2018, dated 2024).

For orientation: clearance means the rate of elimination divided by the concentration. One may read the MRT as a mean duration of stay, worked out from the concentration-time curve. For orientation: EC50 means the concentration at which the effect is half-maximal.

One data set in a line: Rat PK test. It is filed as in vivo. Conditions: plasma, male SD rats, cassette dosing; for clearance / MRT: intravenous 0.1 mg/kg; for clearance: read-out: CL total (total clearance) (converted); for MRT: read-out: MRT iv (mean residence time); for Tmax: oral 1 mg/kg, read-out: Tmax (time to reach maximum plasma concentration). The method, then:
As the rat, 8-week-old male SD rats (Japan SLC, Inc.) were used. They were fed on a solid commercially available diet (CE-2, CLEA Japan, Inc.) and allowed to freely ingest tap water as the drinking water. An intravenous administration solution for the rats was prepared by weighing a test compound, dissolving same in dimethylacetamide (DMA) (Wako Pure Chemical Industries, Ltd.), adding the same volume of 1,3-butanediol (Wako Pure Chemical Industries, Ltd.) and mixing by stirring to give a DMA:1,3-butanediol (1:1, v/v) solution. An oral administration solution was prepared by weighing a test compound, pulverizing same in an agate mortar, and gradually adding 0.5 w/v % aqueous methylcellulose solution to give a suspension. For intravenous administration, the solution was administered into femoral vein of the rats at 0.1 mg/0.5 mL/kg (salt converted to free form). For oral administration, the suspension was administered to the rats at 1 mg/5 mL/kg (salt converted to free form). The cassette dosing method was used for the both administration routes, and the test compound was administered in the following manner. • Compound of Example 5 (intravenous: 9 compounds cassette administration, oral: 4 compounds cassette administration) • Compound of Example 6 (intravenous: 5 compounds cassette administration, oral: 3 compounds cassette administration) • Compound of Example 13 (intravenous: 10 compounds cassette administration, oral: 5 compounds cassette administration) • Compound of Example 14 (intravenous: 7 compounds cassette administration, oral: 3 compounds cassette administration) • Compound of Example 31 (intravenous: 9 compounds cassette administration, oral: 5 compounds cassette administration) • Compound of Example 60 (intravenous: 7 compounds cassette administration, oral: 2 compounds cassette administration)
In the case of intravenous administration, blood samples were collected from the tail vein at 5, 10, 15, 30 min, 1, 2, 4, 8 hr after administration, an anticoagulation treatment with heparin sodium (Shimizu Pharmaceutical Co., Ltd.) was performed, and plasma was collected after centrifugation and subjected to the measurement of drug concentration. In the case of oral administration, blood samples were collected from the tail vein at 15, 30 min, 1, 2, 4, 8 hr after administration, an anticoagulation treatment with heparin sodium was performed, and plasma was collected after centrifugation and subjected to the measurement of drug concentration.
All drug concentrations were measured by LC-MS/MS analysis. For a pharmacokinetics test, the plasma (50 μL) was placed in a tube, acetonitrile (150 μL) containing internal standard solution was added and they were mixed on a vortex mixer. Thereafter, the mixture was centrifuged (5000 rpm, 5 min, 4° C.). The supernatant (60 μL) after centrifugation was added to 10 mmol/L ammonium formate (160 μL) added earlier and mixed therewith. This sample was injected to LC/MS/MS. The HPLC system used was Shimadzu™ LC-20A (Shimadzu Corporation), the column used was Unison UK-C18 HT (3.0 μm, 2.0×20 mm, Imtakt) at 50° C., and 10 mmol/L ammonium formate, 0.2% formic acid as mobile phase A and acetonitrile, 0.2% formic acid as mobile phase B were fed each at a flow rate of 1.2 mL/min under gradient conditions of (B concentration: 0 min→0.1 min, 5%, 0.1→0.75 min, 5-99%, 0.75→1.15 min, 99%, 1.15→1.16 min, 5%, 1.16→1.5 min, 5%). MS/MS used was AB Sciex™ TQ5500-MPX (Applied Biosystems™).
The results are shown in Table 4. • Tmax: time to reach maximum plasma concentration • MRT: mean residence time • iv: intravenous administration • CL total: total clearance

Another data set concerns the target T1, human M1 receptor (Homo sapiens, UniProt P11229).
T1 construct: expressed in transfected cells; host or cells: CHO-K1
T1 sequence (P11229 1-460): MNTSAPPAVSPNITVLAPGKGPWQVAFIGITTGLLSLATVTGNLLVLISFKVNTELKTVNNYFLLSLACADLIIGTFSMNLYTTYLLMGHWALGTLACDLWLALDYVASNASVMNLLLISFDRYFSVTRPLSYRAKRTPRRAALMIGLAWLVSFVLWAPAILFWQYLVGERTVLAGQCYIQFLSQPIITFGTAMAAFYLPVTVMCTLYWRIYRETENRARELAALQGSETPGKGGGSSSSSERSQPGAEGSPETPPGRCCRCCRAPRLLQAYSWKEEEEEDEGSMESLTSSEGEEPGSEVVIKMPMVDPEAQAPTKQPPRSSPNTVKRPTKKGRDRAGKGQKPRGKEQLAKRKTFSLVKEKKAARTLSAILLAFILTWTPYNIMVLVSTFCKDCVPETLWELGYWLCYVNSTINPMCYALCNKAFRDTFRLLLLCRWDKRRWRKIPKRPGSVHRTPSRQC
The experiment in a line: Measurement of M1 receptor positive allosteric modulator (M1PAM) activity. It is filed as cell-based. Conditions: PAM activity in presence of acetylcholine at EC20 concentration; CHO-K1 cells stably expressing human M1 receptor; IP1 time-resolved fluorescence. How it is done:
Measurement of M1 Receptor Positive Allosteric Modulator (M1PAM) Activity
The activity of a test compound in the presence of acetylcholine at an EC20 concentration affording about 20% action of the maximum activity was measured as PAM activity. The method therefor is as follows. To a 384-well white plate (Greiner™) was added 4 μL of the test compound diluted with IP1 Stimulation buffer (CisBio™) containing 0.1% fatty acid-free BSA containing 80 nM acetylcholine. Freeze stock of CHO-K1 cells stably expressing human M1 receptor (hCHRMl) was prepared with IP1 Stimulation buffer (CisBio™) containing 0.1% fatty acid-free BSA, 4 μL thereof was added (10,000 cells/well) and the mixture was cultured in a 5% CO2 incubator at 37° C. for 1 hr. 4 μL of a solution (CisBio™) containing IP1-d2 and Anti-IP1-cryptate Tb conjugate was added the mixture was incubated at room temperature for 1 hr, and the time-resolved fluorescence signal was measured on an Envision plate reader (Perkin Elmer™). The activity (%) of the test compound was calculated by defining the value when acetylcholine was added at the final concentration of 20 μM as 100% and the value when DMSO was added instead of the test compound under acetylcholine-free conditions as 0%, and the EC50 value was calculated as a value of 50% of the concentration dependence curve of the test compound.

Molecules are shown by their SMILES.

In the case of `Cn1cnc(-c2ccc(Cc3cc(C(=O)N[C@H]4CCOC[C@@H]4O)c(F)c4c3OCC4)cc2)c1` [Example 5, 1,5-anhydro-2,3-dideoxy-3-(((4-fluoro-7-(4-(1-methyl-1H-imidazol-4-yl)benzyl)-2,3-dihydro-1-benzofuran-5-yl)carbonyl)amino)-L-threo-pentitol], in “Rat PK test”, the clearance was 11.1 mL/min/kg, the MRT is 36 min and the Tmax was 30 min. For the same molecule, the EC50 at human M1 receptor is 3.7 nM.
Regarding `Cn1cc(-c2ccc(Cc3cc(C(=O)N[C@H]4CCOC[C@@H]4O)c(F)c4c3OCC4)cn2)cn1` [Example 6, 1,5-anhydro-2,3-dideoxy-3-(((4-fluoro-7-((6-(1-methyl-1H-pyrazol-4-yl)pyridin-3-yl)methyl)-2,3-dihydro-1-benzofuran-5-yl)carbonyl)amino)-L-threo-pentitol], in the data set “Rat PK test”, the clearance is 6.5 mL/min/kg, the MRT was 84 min and the Tmax came to 72 min. At human M1 receptor, the EC50 was determined as 2 nM.
Regarding `COCCNC(=O)c1ccc(Cc2cc(C(=O)N[C@H]3CCOC[C@@H]3O)c(F)c3c2OCC3)cc1F` [Example 13, 1,5-anhydro-2,3-dideoxy-3-(((4-fluoro-7-(3-fluoro-4-((2-methoxyethyl)carbamoyl)benzyl)-2,3-dihydro-1-benzofuran-5-yl)carbonyl)amino)-L-threo-pentitol], in the data set “Rat PK test”, the clearance was 13.7 mL/min/kg, the MRT came out at 72 min and the Tmax was 60 min. Besides, the EC50 at human M1 receptor stood at 4.2 nM.
Regarding `CCOCCNC(=O)c1ccc(Cc2cc(C(=O)N[C@H]3CCOC[C@@H]3O)c(F)c3c2OCC3)cc1F` [Example 14, 1,5-anhydro-2,3-dideoxy-3-(((7-(4-((2-ethoxyethyl)carbamoyl)-3-fluorobenzyl)-4-fluoro-2,3-dihydro-1-benzofuran-5-yl)carbonyl)amino)-L-threo-pentitol], in the data set “Rat PK test”, the clearance was 22.9 mL/min/kg, the MRT was determined as 36 min and the Tmax is 42 min. Moreover, the EC50 at human M1 receptor was determined as 20 nM.
On to `CNC(=O)c1ccc(Cc2cc(C(=O)N[C@H]3CCOC[C@@H]3O)c(OC)c3c2OCC3)cc1F` [Example 31, 1,5-anhydro-2,3-dideoxy-3-(((7-(3-fluoro-4-(methylcarbamoyl)benzyl)-4-methoxy-2,3-dihydro-1-benzofuran-5-yl)carbonyl)amino)-L-threo-pentitol], for which, in “Rat PK test”, the clearance was 9.05 mL/min/kg, the MRT was found to be 54 min and the Tmax turned out to be 42 min. Besides, at human M1 receptor, the EC50 was 18 nM.
The matching figures for `COCCCNC(=O)c1ccc(Cc2cc(C(=O)N[C@H]3CCOC[C@@H]3O)c(OC)c3c2CCC3)cc1F` [Example 60, 1,5-anhydro-2,3-dideoxy-3-(((7-(3-fluoro-4-((3-methoxypropyl)carbamoyl)benzyl)-4-methoxy-2,3-dihydro-1H-inden-5-yl)carbonyl)amino)-L-threo-pentitol]: 18.6 mL/min/kg, 36 min, 48 min and 17 nM.
